Our source for the TGI and GI50 values is PubChem BioAssay (NCI).

Common to all, as to experiment: growth of human tumour cells (NCI), 48 h
The subject of assay [1] is K-562 leukemia.
Assay [2] relates to OVCAR-4 ovarian.
For assay [3], the system named is RXF 393 renal.
Assay [4] has as its system T-47D breast.
Assay [5] concerns MCF7 breast.
In assay [6] the test system is BT-549 breast.
Assay [7] has as its system UACC-62 melanoma.
Assay [8] deals with OVCAR-5 ovarian.
For assay [9], the system named is A549 NSCLC.
The subject of assay [10] is U251 CNS.
Assay [11] deals with 786-0 renal.
Assay [12] deals with MALME-3M melanoma.
Assay [13] relates to HCC-2998 colon.

Values joined by “and” are separate entries in the source; they are usually repeats but may differ in a detail not shown here. Equal values may be shown once.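 Following 48 hours of exposure in 96-well plates, responses at five concentrations were used to interpolate endpoints linearly. The concentration for 50% growth inhibition is given as GI50. TGI marks complete inhibition of growth.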 Bounds are passed on as bounds.

As for `Cc1ccc(N=Nc2ccc(O)c(CN(C)C)c2)cc1`, the TGI in assay [1] is 39.6 µM; in assay [2], 53.5 µM; in assay [3] it was 34.2 µM; in [4], 39.5 µM; in [5], 73.9 µM; in assay [6] it was 79.9 µM. For the same compound, the TGI in [7] is 44.3 µM; in assay [8] it was 29.7 µM; in assay [9], 49.4 µM; in assay [10], > 100 µM; in assay [11] it was 54.7 µM; in assay [12], 31.2 µM. The compound also showed a TGI in assay [13] of 29.5 µM.
For the compound `CC(=O)NC(CCC(=O)C=[N+]=N)C(=O)O` (stereo unspecified), the TGI in [1], in [2], in assay [3], in [4], in assay [5] and in [6] was > 100 µM in each case. Besides, the TGI in assay [7], in assay [8], in [9], in assay [10], in assay [11] and in [12] was > 100 µM throughout. In addition, in assay [13], the TGI is > 100 µM.
Regarding `CCOC(=O)c1cnc2n(c1=N)[C@H]1CCCC[C@@H]1N2`, the TGI in assay [1], in assay [2], in assay [3], in assay [4], in [5] and in [6] was > 100 µM throughout. Moreover, the TGI in [7], in assay [8], in assay [9], in [10], in assay [11] and in assay [12] was > 100 µM each time. The TGI in [13] is > 100 µM.
Take `CC1CCC2(C(=O)O)CCC3(C)C(=CCC4C5(C)CCC(O)C(C)(C)C5CCC43C)C2C1C` (stereo unspecified): the TGI in assay [1] is 15.6 µM; in assay [2] it was 24.2 µM and 31.9 µM; in [3], 16.4 µM and 38.3 µM; in assay [4], 29.3 µM; in assay [5], 25.6 µM and 43.7 µM; in [6], 40.5 µM. For the same compound, the TGI in assay [7] is 18.8 µM and 44 µM; in assay [8], 19.6 µM and 23.2 µM; in assay [9] it was 21.4 µM and > 100 µM; in assay [10], 19.8 µM and > 100 µM; in [11], > 100 µM; in assay [12], 25.6 µM and 28.9 µM. The TGI in [13] was 21.8 µM and 23 µM. For the same compound, the GI50 in [9] was 10.1 µM and 26.4 µM.
For the compound `CC1CC[C@@]2(OC1)OC1CC3C4CCC5C[C@@H](OC6OC(CO)C(OC7OC(CO)C(O)C(OC8OC(CO)C(O)C(OC9OC(CO)C(O)C(O)C9O)C8O)C7OC7OC(CO)C(O)C(O)C7O)C(O)C6O)[C@H](O)C[C@]5(C)C4CC[C@]3(C)C1[C@@H]2C` (stereo partly specified), the TGI in [1], in [2], in assay [3], in assay [4], in assay [5] and in assay [6] was > 80.5 µM throughout. The TGI in assay [7], in [8], in [9], in [10], in [11] and in [12] was > 80.5 µM each time. In addition, the TGI in assay [13] was > 80.5 µM.
Take `CCOc1ccc(N/C(Cl)=C(Cl)\C(=C(\Nc2ccc(OCC)cc2)n2nnc3ccccc32)[N+](=O)[O-])cc1`: the TGI in assay [1] was > 21.6 µM; in assay [2] it was 30.8 µM; in [3], 5.39 µM; in [4] it was 29.1 µM; in [5], 24.6 µM; in [6], 14 µM. In addition, the TGI was determined as 34.6 µM in assay [7]; 27 µM in [8]; 66.8 µM in assay [9]; 22 µM in assay [10]; 14.2 µM in assay [11]; 5.49 µM in assay [12]. In addition, in assay [13], the TGI is 46.6 µM.
As for `CC(=O)Nc1cc2c3c(c1)CCCN3CCC2`, the TGI in [1], in assay [2], in assay [3], in [4], in assay [5] and in [6] was > 100 µM each time. The TGI in assay [7], in assay [8], in assay [9], in assay [10], in assay [11] and in assay [12] was > 100 µM throughout. In assay [13], the TGI was > 100 µM.
With `CN(C)P(=O)(Oc1ccc(CC(NC(=O)OCc2ccccc2)C(=O)OCc2ccccc2)cc1)N(C)C` (stereo unspecified), the TGI in assay [1] is 64.1 µM; in assay [2], 39.1 µM; in assay [3] it was 32.7 µM; in assay [4], 52.3 µM; in [5] it was 31.6 µM; in [6], 32.4 µM. Besides, the TGI was 31.5 µM in [7]; 38.6 µM in assay [8]; 38.2 µM in assay [9]; 28.2 µM in assay [10]; 17.5 µM in assay [11]; 32.7 µM in assay [12]. Further, the TGI in assay [13] is 37.8 µM.
As to `CC(=O)O[C@H]1/C(=C/c2ccncc2)C[C@H]2[C@@H]3CC=C4C[C@@H](N5CCCC5)CC[C@]4(C)[C@H]3CC[C@]12C`, the TGI in [1] amounted to 12.5 µM; in [2], 37.7 µM; in [3], 20.4 µM; in assay [4] it was 29.3 µM; in assay [5] it was 25.8 µM; in assay [6] it was 35.8 µM. Moreover, the TGI in assay [7] was 27.5 µM; in assay [8] it was 27.2 µM; in [9], 26.8 µM; in assay [10], 24.8 µM; in assay [11], 10.3 µM; in assay [12], 28 µM. The same compound returned a TGI in assay [13] of 26 µM.
In the case of `CC(C)NC(=O)OCc1c(COC(=O)NC(C)C)c(-c2cc[n+](COC(=O)C(C)(C)C)cc2)n2c1CCC2`, the TGI in [1], in assay [2], in assay [3], in assay [4], in assay [5] and in assay [6] was > 100 µM throughout. Further, the TGI in [7], in assay [8], in assay [9], in assay [10], in assay [11] and in assay [12] was > 100 µM in each case. Moreover, in [13], the TGI was > 100 µM.
Turning to `CCc1n[nH]c(=O)n1/N=C/c1ccc(C)cc1`, the TGI in assay [1], in assay [2], in assay [3], in [4], in [5] and in assay [6] was > 100 µM in each case. The TGI in [7], in [8], in [9], in assay [10], in [11] and in [12] was > 100 µM throughout. In assay [13], the TGI was > 100 µM.
For `CCOC(=O)C(C)NC(=O)C(C)NC(=O)C(C)NC(=O)C(C)NC(=O)C(C)NC(=O)OCc1ccccc1` (stereo unspecified), the TGI in assay [1], in [2], in [3], in assay [4], in [5] and in [6] was > 100 µM in each case. For the same compound, the TGI in assay [7], in assay [8], in assay [9], in [10], in assay [11] and in [12] was > 100 µM each time. For the same compound, the TGI in assay [13] is > 100 µM.
As for `c1ccc(CNCCCCNCCCNCc2ccccc2)cc1`, the TGI in assay [1] was 34.2 µM; in [2] it was 38.2 µM; in assay [3], 32.7 µM; in [4] it was > 100 µM; in assay [5], > 100 µM; in assay [6] it was 33.6 µM. The TGI in [7] is 32.4 µM; in assay [8] it was > 100 µM; in assay [9] it was 36.2 µM; in [10], 35.7 µM; in [11], 31.4 µM; in [12], 30.2 µM. Further, the TGI in assay [13] is 31.3 µM.
For the compound `CCCCC(Sc1cc(Cl)c(C)cc1S(=O)(=O)Nc1n[nH]c(N)n1)C(=O)OC` (stereo unspecified), the TGI in assay [1], in assay [2], in assay [3], in [4], in assay [5] and in assay [6] was > 10 µM each time. Moreover, the TGI in assay [7], in [8], in assay [9], in assay [10], in assay [11] and in assay [12] was > 10 µM each time. For the same compound, the TGI in assay [13] was > 10 µM.
Turning to `O=C(O)CCc1ccc2c(c1)C(=O)CC2`, the TGI in assay [1], in assay [2], in assay [3], in assay [4], in assay [5] and in assay [6] was > 100 µM in each case. Besides, the TGI in assay [7], in assay [8], in assay [9], in assay [10], in assay [11] and in [12] was > 100 µM each time. In addition, in [13], the TGI was > 100 µM.
Take `Clc1cc(Cl)cc(C2ON=C(c3ccccc3)N2C23CC4CC(CC(C4)C2)C3)c1` (stereo unspecified): the TGI in [1], in assay [2], in [3], in assay [4], in [5] and in [6] was > 10 µM throughout. Moreover, the TGI in assay [7], in assay [8], in [9], in assay [10], in [11] and in [12] was > 10 µM throughout. The TGI in [13] was > 10 µM.
With `CCC[C@H](NS(=O)c1ccc(C)cc1)C(C(=O)OCC)=C(c1ccccc1)c1ccccc1` (stereo partly specified), the TGI in assay [1] was > 100 µM; in assay [2], 49 µM; in assay [3], 29.6 µM; in assay [4], 88.6 µM; in assay [5], 43.2 µM; in assay [6] it was 48.3 µM. Also, the TGI in assay [7] was 31.5 µM; in [8] it was 43.4 µM; in assay [9] it was 96.9 µM; in assay [10], 33.5 µM; in assay [11], 35.9 µM; in assay [12] it was 36.1 µM. In addition, the TGI in assay [13] was found to be 15.3 µM.
Consider `Cc1nc2c(=O)n(-c3ccccc3)c3ccccc3c2o1`, for which the TGI in assay [1], in [2], in assay [3], in assay [4], in [5] and in assay [6] was > 100 µM each time. The TGI in assay [7], in assay [8], in assay [9], in assay [10], in [11] and in [12] was > 100 µM each time. Besides, the TGI in assay [13] was > 100 µM.
With `CN(C)CCN=C1Nc2ccccc2C(=S)N2CSCC12` (stereo unspecified), the TGI in assay [1], in [2], in assay [3], in assay [4], in [5] and in assay [6] was > 100 µM throughout. Also, the TGI in assay [7], in assay [8], in assay [9], in assay [10], in assay [11] and in [12] was > 100 µM each time. Besides, in assay [13], the TGI is > 100 µM.
Take `O=c1[nH]nc(Cc2ccccc2)n1/N=C\c1ccccc1`: the TGI in [1], in assay [2], in assay [3], in [4], in assay [5] and in assay [6] was > 100 µM in each case. Also, the TGI in assay [7], in assay [8], in assay [9], in [10], in assay [11] and in assay [12] was > 100 µM in each case. The TGI in [13] was > 100 µM.
